Test results reported in patent US8304258B2, “Methods of producing monoclonal antibodies specific for human hepcidin” (DRG International, Inc., priority 2002, dated 2012).

What was measured:
[1] = test system: hepcidin protein in RINm5F cells; assay: Immunoblot analysis of hepcidin in stimulated RINm5F cells; assay type: cell-based, rat
Procedure: (§1) RINM5F cells were grown in RPMI1640 media (PAA, Austria) containing L-glutamine, supplemented with 10% (vol/vol) heat inactivated fetal calf serum, penicillin (100 units/ml) and streptomycin (100 μg/mL). Cells were cultivated at 37° C. in 5% CO2. Cells were incubated with increasing concentrations of FENTA from 1 μM up to 65 μM for 72 hours and with 100 mM glucose (Merck, Darstadt, Germany) for up to 8 hours. After stimulation experiments, total rna or proteins were extracted from RINM5F cells and analyzed by quantitative PCR and immunoblot assays.
(§2) In these experiments, protein extracts were incubated for 7 min at 94° C. in sample buffer with 4% (wt/vol) SDS (Merck, Darmstadt, Germany), 50 mM TRIS-HCl (PH 8.45), 1 mM EDTA, 3.24 mM dithiothreitol (ROTH, Karlsruhe, Germany), 12.5% (wt/vol) glycerol (Merck, Darmstadt, Germany), and 0.002% Bromophenol blue (Merck, Darmstadt, Germany). To detect hepcidin, a 16.5% Tricine-SDS-polyacrylamide gel was used.

[2] = test system: RINm5F cells; assay: Neutral red cytotoxicity assay in RINm5F cells; assay type: cell-based, rat; details: FeNTA concentrations used, 3 days after iron stimulation
Procedure: (A): Hepcidin expression in RINm5F cells after iron (FeNTA) stimulation using quantitative RT-PCR (n=5) (1 μM FeNTA: P<0.01; 3 μM: P<0.001; 10 μM: P<0.002; 65 μM: P<0.05). (B): Cytotoxicity of FeNTA in RINm5F cells measured by neutral red assay 3 days after iron stimulation. […] (C): Immunoblot analysis of iron stimulated RINm5F cells showing hepcidin immunoreactivity at the range of 10 kDa. […] The second immunoreactive band at 20 kDa may reflect a dimeric type of hepcidin.
as §2

[3] = test system: hepcidin expression in RINm5F cells; assay: Hepcidin expression in RINm5F cells by quantitative RT-PCR after stimulation; assay type: cell-based, rat
Procedure: as §1
The regulation of hepcidin expression in RINm5F cells was analyzed upon exposure to iron, since iron regulates hepcidin expression in the liver. The regulatory effect of iron on hepcidin gene expression was measured in these cells under various FENTA concentrations using quantitative RT-PCR as described, for example, in Gehrke et al., Blood 102: 371-376 (2003). A 2-step reverse transcriptase-polymerase chain reaction (RT-PCR) was performed using the Lightcycler system and relative quantification software version 1.0 (ROCHE Molecular Biochemicals; Mannheim, Germany). […] In a second step, transcripts of hepcidin were amplified in duplicates with specific sense and antisense primers. all transcripts were detected using SYBR GREEN I according to manufacturer's instructions and were normalized to β-actin as internal control.

[4] = target: T1, Ferroportin-GFP (Fpn-GFP) (Mus musculus, UniProt Q9JHI9); assay: Fpn-GFP internalization in HEK293-Fpn cells, epi-fluorescence microscopy; assay type: cell-based
T1 construct: expressed in transfected cells; host or cells: EcR293 cells (resulting HEK293-Fpn cells), induced with ponasterone for 24 h
T1 sequence (Q9JHI9 1-570): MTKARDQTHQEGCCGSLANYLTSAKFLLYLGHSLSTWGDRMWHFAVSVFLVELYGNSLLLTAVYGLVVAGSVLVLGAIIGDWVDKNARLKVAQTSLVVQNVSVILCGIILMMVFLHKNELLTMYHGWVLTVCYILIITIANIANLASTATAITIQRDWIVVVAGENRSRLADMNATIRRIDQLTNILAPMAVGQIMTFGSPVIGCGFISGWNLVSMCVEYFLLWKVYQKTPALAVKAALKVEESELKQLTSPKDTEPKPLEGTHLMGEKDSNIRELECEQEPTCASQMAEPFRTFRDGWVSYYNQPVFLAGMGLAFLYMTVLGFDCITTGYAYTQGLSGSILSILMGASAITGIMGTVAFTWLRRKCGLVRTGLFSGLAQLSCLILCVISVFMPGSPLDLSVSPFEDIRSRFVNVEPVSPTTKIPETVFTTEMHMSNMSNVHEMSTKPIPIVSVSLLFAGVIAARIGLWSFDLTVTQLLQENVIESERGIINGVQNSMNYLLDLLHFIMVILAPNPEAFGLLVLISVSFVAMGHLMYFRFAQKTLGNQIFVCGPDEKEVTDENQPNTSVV
Excerpt: In one embodiment, the antibodies of the instant invention (e.g., the antibodies capable of binding SEQ ID NO:2, SEQ ID NO:3, SEQ ID NO:4, SEQ ID NO:5) may be used to inactivate hepcidin. In one embodiment, EcR293 cells were stably transfected with a plasmid containing an ecdysone-regulated Ferroportin-GFP (Fpn-GFP) construct (Nemeth et al. Science 306:2090-2093, (2004)). In resulting HEK293-Fpn cells bioactive hepcidin binds to ferroportin and specifically induces the internalization of Fpn-GFP. Briefly, Fpn-GFP was induced by ponasterone treatment for 24 h. Cells were then incubated with 0.1 to 0.5 μM purified human hepcidin (from urine) for 6 h and imaged by epi-fluorescence microscopy. […] When hepcidin was absent from the medium, there was no internalization of Fpn-GFP.
cR293 cells were stably transfected with a plasmid containing an ecdysone-regulated Ferroportin-GFP (Fpn-GFP) construct. In resulting HEK293-Fpn cells bioactive hepcidin binds to ferroportin and specifically induces the internalization of Fpn-GFP. Briefly, Fpn-GFP was induced by ponasterone treatment for 24 h. Cells were then incubated with 0.1 to 0.5 μM purified human hepcidin (from urine) for 6 h and imaged by epi-fluorescence microscopy.

O=C([O-])CN(CC(=O)[O-])CC(=O)[O-].[Fe+3] [FeNTA, Iron Nitrilotriacetate]
hepcidin immunoreactivity at 10 kDa compared to control ([1]; 3 μM FeNTA): up-regulation of hepcidin | hepcidin immunoreactivity at 10 kDa compared to control ([1]; 65 μM FeNTA): down-regulation | cytotoxicity in neutral red assay [2]: no cytotoxicity exists under the iron concentrations used | cytotoxicity in neutral red assay ([2]; listed as FENTA): not cytotoxic | hepcidin-mRNA regulation ([3]; FeNTA 1 μM up to 10 μM, 72 hours): significant up-regulation of hepcidin-mRNA up to three-fold | hepcidin expression ([3]; FeNTA 65 μM or higher): down-regulated

Chemically synthesized hepcidin: hepcidin synthesized chemically
efficiency in inducing Fpn-GFP internalization compared with hepcidin purified from urine ([4]; same experiments as with urine hepcidin): as efficient in inducing Fpn-GFP internalization as hepcidin purified from urine

hepcidin: purified human hepcidin (from urine), bioactive peptide hormone binding ferroportin
time to Fpn internalization ([4]; 0.1 μM hepcidin): ≤ 1 h | distribution of Fpn-GFP after addition of hepcidin ([4]; 0.1 to 0.5 μM purified human hepcidin (from urine), 6 h): changed the distribution of Fpn-GFP from the cell surface to punctuate intracellular vesicles | concentration of hepcidin that induced Fpn internalization ([4]; HEK293-Fpn cells, within 1 h): ≤ 0.1 µM
